Measurements as given in BindingDB's records for doi:10.1016/j.bmcl.2011.07.110 (Second Military Medical University, 2011).

Target: Acrosin (Homo sapiens, UniProt P10323)
Assay: Inhibition of human acrosin using N-alpha-benzoyl-DL-arginine para-nitroanilide-HCl as substrate after 3 hrs by spectrophotometry

Acrosin, sequence (P10323 20-42 limits assumed): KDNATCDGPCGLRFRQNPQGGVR
Acrosin, sequence (P10323 43-343 limits assumed): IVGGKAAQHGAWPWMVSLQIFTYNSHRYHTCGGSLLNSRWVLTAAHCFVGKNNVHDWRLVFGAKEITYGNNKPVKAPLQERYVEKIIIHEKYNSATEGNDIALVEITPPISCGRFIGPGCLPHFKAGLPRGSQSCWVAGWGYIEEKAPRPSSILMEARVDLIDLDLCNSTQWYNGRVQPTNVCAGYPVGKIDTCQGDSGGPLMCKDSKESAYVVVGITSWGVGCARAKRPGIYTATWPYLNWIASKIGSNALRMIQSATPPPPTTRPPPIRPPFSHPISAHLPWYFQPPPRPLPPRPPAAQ

Compound	IC50
CCOC(=O)c1cc(-c2ccc(NC(C)=O)cc2)[nH]n1	23 mM
CCOC(=O)c1cc(-c2ccc(NC(=O)CC)cc2)[nH]n1	14 mM
CCCC(=O)Nc1ccc(-c2cc(C(=O)OCC)[nH]n2)cc1	17 mM
CCCCC(=O)Nc1ccc(-c2cc(C(=O)OCC)n[nH]2)cc1	72 mM
CCOC(=O)c1cc(-c2ccc(NC(=O)C(F)(F)F)cc2)[nH]n1	7.9 mM
CCOC(=O)c1cc(-c2ccc(NC(=O)CCCl)cc2)[nH]n1	5.76 mM
CCOC(=O)c1cc(-c2ccc(NC(=O)CCC(=O)O)cc2)[nH]n1	9.25 mM
CCOC(=O)c1cc(-c2ccc(NC(=O)CCCC(=O)O)cc2)n[nH]1	17.4 mM
CCOC(=O)c1cc(-c2ccc(NC(=O)c3ccccc3)cc2)n[nH]1	8 mM
CCOC(=O)c1cc(-c2ccc(NC(=O)c3ccc(F)cc3)cc2)[nH]n1	2.4 mM
CCOC(=O)c1cc(-c2ccc(NC(=O)c3c(F)cccc3F)cc2)[nH]n1	3.98 mM
CCOC(=O)c1cc(-c2ccc(NC(=O)c3ccccc3Cl)cc2)n[nH]1	0.11 mM
CCOC(=O)c1cc(-c2ccc(NC(=O)c3ccc(Cl)cc3)cc2)n[nH]1	3.31 mM
CCOC(=O)c1cc(-c2ccc(NC(=O)c3ccc(Cl)cc3Cl)cc2)[nH]n1	0.44 mM
CCOC(=O)c1cc(-c2ccc(NC(=O)c3c(Cl)cccc3Cl)cc2)n[nH]1	4.8 mM
CCOC(=O)c1cc(-c2ccc(NC(=O)c3ccccc3Br)cc2)n[nH]1	2.4 mM
CCOC(=O)c1cc(-c2ccc(NC(=O)c3ccc(C)cc3)cc2)n[nH]1	34.6 mM
CCOC(=O)c1cc(-c2ccc(NC(=O)c3ccc(OC)cc3)cc2)n[nH]1	0.8 mM
CCOC(=O)c1cc(-c2ccc(NC(=O)c3ccc(CCl)cc3)cc2)n[nH]1	3.31 mM
CCOC(=O)c1cc(-c2ccc(NC(=O)Cc3ccccc3)cc2)[nH]n1	0.47 mM
CCOC(=O)c1cc(-c2ccc(NC(=O)C(CC)c3ccccc3)cc2)n[nH]1 (configuration not stated)	3.3 mM
CCOC(=O)c1cc(-c2ccc(NS(=O)(=O)c3ccc(C)cc3)cc2)[nH]n1	0.032 mM
